Data reported in paper PMC12274739, “Differential substrate degradation by super-degron: EGFP in wild-type mouse cells, PD-1 requires CRBN humanization” (iScience, 2025).
Read-outs that look alike come from different tables or passages of the source. Residues, ends and D or L forms follow the SMILES beside them. *: point of attachment. Cbz = O=C(OCc1ccccc1)*

Tests used:
[1] = tested on: degradation of SD-tagged EGFP; experiment: Inhibition of IBR-induced degradation of SD-EGFP or EGFP-SD in B6J-S1 by pathway inhibitors; assay type: cell-based, mouse; conditions: B6J-S1, IBR fixed at 1 μM, 24 h
EGFP-IKZF = EGFP-IKZF (UniProt P42212+Q8C7D2, F64L/H231L/INS1V/S65T); assay type: cell-based, mouse; conditions: for Bottom, EGFP-IKZF / LogDC50, EGFP-IKZF / DC50: stable; for DC50: read-out: DC50, EGFP-IKZF
EGFP-SD = EGFP-SD (Aequorea victoria, UniProt P42212, F64L/H231L/S65T); assay type: cell-based, mouse; conditions: stable; for DC50: read-out: DC50, EGFP-SD
EGFP-ZFP91 = EGFP-ZFP91 (UniProt P42212+Q8C7D2, F64L/H231L/INS1V/S65T); assay type: cell-based, mouse; conditions: CrbnI391V/I391V mESCs; for Bottom, EGFP-ZFP91 / LogDC50, EGFP-ZFP91 / DC50: stable, Figure 5E; for DC50: read-out: DC50, EGFP-ZFP91
[2] = in vivo; cited from earlier work
[3] = CrbnI391V/I391V mESCs, Figure 5E

NS(=O)(=O)OC[C@@H]1C[C@@H](n2ccc3c(N[C@H]4CCc5ccccc54)ncnc32)C[C@@H]1O [MNL4924, pevonedistat]
effect on IBR-induced EGFP degradation [1]: inhibited in a concentration-dependent manner

NS(=O)(=O)OC[C@H]1C[C@@H](Nc2ccnc3cc(-c4cccc(SC(F)(F)F)c4)nn23)[C@H](O)[C@@H]1O [TAK-243]
effect on IBR-induced EGFP degradation [1]: inhibited in a concentration-dependent manner

CC(C)C[C@@H](C=O)NC(=O)[C@H](CC(C)C)NC(=O)[C@H](CC(C)C)NC(=O)OCc1ccccc1 [MG-132] (Cbz-Leu-Leu-Leu-aldehyde)
effect on IBR-induced EGFP degradation [1]: inhibited in a concentration-dependent manner

CCOC(=O)c1ccc(N2NC(=O)/C(=C/c3ccc([N+](=O)[O-])o3)C2=O)cc1 [PYR-41]
effect on IBR-induced EGFP degradation [1]: did not affect the degradation of EGFP

Cc1nc2cccc(N)c2c(=O)n1C1CCC(=O)NC1=O (centres unmarked) [AVA, avadomide]
Bottom, EGFP-IKZF (EGFP-IKZF; B6J-S1 mESCs, Figure 5D): 0.07112
LogDC50, EGFP-IKZF (EGFP-IKZF; B6J-S1 mESCs, Figure 5D): -0.9014 μM
Bottom, EGFP-IKZF (EGFP-IKZF; [3]): 0.1373
LogDC50, EGFP-IKZF (EGFP-IKZF; [3]): -1.87 μM
EGFP-IKZF amount compared to other reagents (EGFP-IKZF; mESCs, 0.1 and 1 μM): significantly reduced
DC50 (EGFP-IKZF; B6J-S1 mESCs, Figure 5D): 126 nM
DC50 (EGFP-IKZF; [3]): 13.5 nM
Bottom, EGFP-SD (EGFP-SD; B6J-S1 mESCs, Figure 5D): 0.01996
LogDC50, EGFP-SD (EGFP-SD; B6J-S1 mESCs, Figure 5D): -2.1 μM
Bottom, EGFP-SD (EGFP-SD; [3]): 0.06758
LogDC50, EGFP-SD (EGFP-SD; [3]): -2.187 μM
DC50 (EGFP-SD; B6J-S1 mESCs, Figure 5D): 7.94 nM
DC50 (EGFP-SD; [3]): 6.5 nM
Bottom, EGFP-ZFP91 (EGFP-ZFP91): 0.1629
LogDC50, EGFP-ZFP91 (EGFP-ZFP91): -1.296 μM
DC50 (EGFP-ZFP91): 50.5 nM

N#Cc1ccc(N2CCN(Cc3ccc(COc4cccc5c4CN([C@H]4CCC(=O)NC4=O)C5=O)cc3)CC2)c(F)c1 [MZG, mezigdomide]
Bottom, EGFP-IKZF (EGFP-IKZF; B6J-S1 mESCs, Figure 5D): 0.385
LogDC50, EGFP-IKZF (EGFP-IKZF; B6J-S1 mESCs, Figure 5D): -1.952 μM
Bottom, EGFP-IKZF (EGFP-IKZF; [3]): 0.1226
LogDC50, EGFP-IKZF (EGFP-IKZF; [3]): -3.265 μM
DC50 (EGFP-IKZF; B6J-S1 mESCs, Figure 5D): 11.2 nM
DC50 (EGFP-IKZF; [3]): 0.543 nM
Bottom, EGFP-SD (EGFP-SD; B6J-S1 mESCs, Figure 5D): 0.0126
LogDC50, EGFP-SD (EGFP-SD; B6J-S1 mESCs, Figure 5D): -3.875 μM
Bottom, EGFP-SD (EGFP-SD; [3]): 0.0164
LogDC50, EGFP-SD (EGFP-SD; [3]): -4.187 μM
DC50 (EGFP-SD; B6J-S1 mESCs, Figure 5D): 0.133 nM
DC50 (EGFP-SD; [3]): 0.0651 nM
degradation of EGFP-ZFP91 (EGFP-ZFP91): efficiently degraded
Bottom, EGFP-ZFP91 (EGFP-ZFP91): 0.03183
LogDC50, EGFP-ZFP91 (EGFP-ZFP91): -3.343 μM
DC50 (EGFP-ZFP91): 0.454 nM

CCN(CC)CCCC(C)Nc1ccnc2cc(Cl)ccc12 (centres unmarked) [chloroquine]
effect on IBR-induced EGFP degradation [1]: but not by chloroquine

CC[C@H](C(=O)N1CCCC[C@H]1C(=O)O[C@H](CCc1ccc(OC)c(OC)c1)c1ccccc1OCC(=O)NCCCCCCOc1cccc2c1C(=O)N(C1CCC(=O)NC1=O)C2=O)c1cc(OC)c(OC)c(OC)c1 (some centres unmarked) [dTAG-13]
blood-brain barrier (BBB) passage [2]: cannot cross the blood-brain barrier
